For 14 compounds, EC50 and Emax results are on record in US20240208992A1, “MACROCYCLES AS CFTR MODULATORS” (Idorsia Pharmaceuticals Ltd, priority 2021, published 2024).

SMILES strings stand for the structures.

The assay concerns the target human F508del-CFTR (Homo sapiens, UniProt P13569, DEL508-508). In words: F508del-CFTR cell surface expression (corrector activity), DiscoveRx ß-galactosidase complementation chemiluminescence assay in recombinant U2OS cell line.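 For all read-outs here: U2OS cells co-expressing ProLink-tagged F508del-CFTR and a membrane-anchored enzyme acceptor, where more surface CFTR restores β-galactosidase activity measured by chemiluminescence.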 The following applies: for EC50: EC50, F508del-CFTR cell surface expression, U2OS cells, 16h compound incubation, geomean values; for Emax: U2OS, in relation to Emax of corrector lumacaftor (=100%), arithmetic mean values.

human F508del-CFTR, sequence (P13569 with tags, fused parts or gaps DEL508-508): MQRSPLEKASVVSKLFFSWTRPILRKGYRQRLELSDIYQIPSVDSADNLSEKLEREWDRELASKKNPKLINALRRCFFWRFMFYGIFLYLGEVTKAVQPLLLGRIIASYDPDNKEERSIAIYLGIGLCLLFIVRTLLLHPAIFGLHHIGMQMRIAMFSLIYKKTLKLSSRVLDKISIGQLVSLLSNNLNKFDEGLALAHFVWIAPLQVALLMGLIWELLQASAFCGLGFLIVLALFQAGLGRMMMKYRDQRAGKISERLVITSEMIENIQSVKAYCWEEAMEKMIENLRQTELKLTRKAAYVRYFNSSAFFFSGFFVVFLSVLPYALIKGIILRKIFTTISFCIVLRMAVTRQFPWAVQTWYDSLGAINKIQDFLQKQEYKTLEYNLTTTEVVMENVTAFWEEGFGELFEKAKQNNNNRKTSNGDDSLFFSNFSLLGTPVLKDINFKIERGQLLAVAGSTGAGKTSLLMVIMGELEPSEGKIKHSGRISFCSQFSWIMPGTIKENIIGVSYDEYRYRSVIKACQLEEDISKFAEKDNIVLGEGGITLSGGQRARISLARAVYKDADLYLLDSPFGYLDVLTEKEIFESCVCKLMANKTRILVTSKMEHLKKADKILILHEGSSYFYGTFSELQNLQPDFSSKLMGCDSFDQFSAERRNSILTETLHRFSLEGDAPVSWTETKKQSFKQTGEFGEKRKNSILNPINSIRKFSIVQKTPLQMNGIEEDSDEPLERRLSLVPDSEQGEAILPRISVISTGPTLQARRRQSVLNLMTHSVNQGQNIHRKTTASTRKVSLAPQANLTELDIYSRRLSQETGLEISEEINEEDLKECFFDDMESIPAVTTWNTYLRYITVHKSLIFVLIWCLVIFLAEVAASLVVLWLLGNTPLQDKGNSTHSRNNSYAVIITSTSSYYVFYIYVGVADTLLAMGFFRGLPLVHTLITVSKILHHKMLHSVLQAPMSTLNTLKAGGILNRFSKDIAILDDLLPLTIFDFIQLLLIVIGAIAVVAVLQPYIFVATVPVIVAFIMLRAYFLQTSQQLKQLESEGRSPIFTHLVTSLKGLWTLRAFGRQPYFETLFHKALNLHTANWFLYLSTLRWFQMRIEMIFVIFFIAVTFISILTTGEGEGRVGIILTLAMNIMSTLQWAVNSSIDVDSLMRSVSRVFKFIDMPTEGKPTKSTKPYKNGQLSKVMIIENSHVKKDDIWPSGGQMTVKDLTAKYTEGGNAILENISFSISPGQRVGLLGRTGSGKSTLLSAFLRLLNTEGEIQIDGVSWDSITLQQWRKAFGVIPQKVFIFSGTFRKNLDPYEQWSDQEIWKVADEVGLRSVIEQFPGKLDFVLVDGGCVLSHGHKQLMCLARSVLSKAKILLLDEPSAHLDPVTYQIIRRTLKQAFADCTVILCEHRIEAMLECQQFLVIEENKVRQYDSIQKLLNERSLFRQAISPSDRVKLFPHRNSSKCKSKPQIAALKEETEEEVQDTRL

`CC(C)C[C@H]1C(=O)N2CCCC[C@@H]2C(=O)N[C@H](Cc2ccccc2)COc2cnc3ccc(F)cc3c2C(=O)N[C@H](C(=O)NCCc2ccc(-n3nccn3)cc2)CC(=O)N1C` [Example 481, (9S,13S,19aR,22R)-N-(4-(2H-1,2,3-triazol-2-yl)phenethyl)-22-benzyl-5-fluoro-13-isobutyl-12-methyl-7,11,14,20-tetraoxo-7,8,9,10,11,12,13,14,17,18,19,19a,20,21,22,23-hexadecahydro-16H-pyrido[2′,1′:6,7][1]oxa[4,7,10,14]tetraazacycloheptadecino[17,16-c]quinoline-9-carboxamide]: the EC50 stood at 448 nM and the Emax worked out at 225%.

`Cc1nc2ccc3c(c2o1)C(=O)N[C@H](C(=O)NCCc1c(F)cccc1F)CC(=O)N(C)[C@@H](CC(C)C)C(=O)N1CCCC[C@@H]1C(=O)N[C@H](Cc1ccccc1)CO3` [Example 482, (8S,12S,18aR,21R)-21-benzyl-N-(2,6-difluorophenethyl)-12-isobutyl-4,11-dimethyl-6,10,13,19-tetraoxo-6,7,8,9,10,11,12,13,16,17,18,18a,19,20,21,22-hexadecahydro-15H-oxazolo[4′,5′:5,6]benzo[1,2-p]pyrido[2,1-f][1]oxa[4,7,10,14]tetraazacycloheptadecine-8-carboxamide]: the concentration giving a half-maximal response (EC50) turned out to be 414 nM and the Emax is 247%.

With `COc1nccc2c1C(=O)N[C@H](C(=O)NCCc1noc(C3CC3)n1)CC(=O)N(C)[C@@H](CC(C)C)C(=O)N1CCCC[C@@H]1C(=O)N[C@H](Cc1ccccc1)CO2` [Example 483, (7S,11S,17aR,20R)-20-benzyl-N-(2-(5-cyclopropyl-1,2,4-oxadiazol-3-yl)ethyl)-11-isobutyl-4-methoxy-10-methyl-5,9,12,18-tetraoxo-5,6,7,8,9,10,11,12,15,16,17,17a,18,19,20,21-hexadecahydro-14H-dipyrido[2,1-f:3′,4′-p][1]oxa[4,7,10,14]tetraazacycloheptadecine-7-carboxamide], the EC50 is 517 nM and the Emax was 311%.

On to `CC(C)C[C@H]1C(=O)N2CCCC[C@@H]2C(=O)N[C@H](Cc2ccccc2)COc2nc3ccccn3c2C(=O)N[C@H](C(=O)NCCc2c(F)cccc2F)CC(=O)N1C` [Example 484, (7S,11S,22R,24aR)-22-benzyl-N-(2,6-difluorophenethyl)-7-isobutyl-8-methyl-6,9,13,24-tetraoxo-1,3,4,6,7,8,9,10,11,12,13,21,22,23,24,24a-hexadecahydro-2H-pyrido[2,1-f]pyrido[2′,1′:2,3]imidazo[4,5-p][1]oxa[4,7,10,14]tetraazacycloheptadecine-11-carboxamide], for which the EC50 is 251 nM and the Emax worked out at 117%.

In the case of `CC(C)C[C@H]1C(=O)N2CCCC[C@@H]2C(=O)N[C@H](Cc2ccccc2)COc2ccc3ncn(C)c3c2C(=O)N[C@H](C(=O)NCCc2c(F)cccc2F)CC(=O)N1C` [Example 485, (8S,12S,18aR,21R)-21-benzyl-N-(2,6-difluorophenethyl)-12-isobutyl-5,11-dimethyl-6,10,13,19-tetraoxo-6,7,8,9,10,11,12,13,16,17,18,18a,19,20,21,22-hexadecahydro-5H,15H-imidazo[4′,5′:5,6]benzo[1,2-p]pyrido[2,1-f][1]oxa[4,7,10,14]tetraazacycloheptadecine-8-carboxamide], the EC50 was determined as 238 nM and the Emax amounted to 204%.

Consider `CC(C)C[C@H]1C(=O)N2CCCC[C@@H]2C(=O)N[C@H](Cc2ccccc2)COc2ccc3ncccc3c2C(=O)N[C@H](C(=O)NCCc2noc(C3CC3)n2)CC(=O)N1C` [Example 486, (9S,13S,19aR,22R)-22-benzyl-N-(2-(5-cyclopropyl-1,2,4-oxadiazol-3-yl)ethyl)-13-isobutyl-12-methyl-7,11,14,20-tetraoxo-7,8,9,10,11,12,13,14,17,18,19,19a,20,21,22,23-hexadecahydro-16H-pyrido[2′,11:6,7][1]oxa[4,7,10,14]tetraazacycloheptadecino[16,17-f]quinoline-9-carboxamide], for which the EC50 came to 201 nM and the Emax is 303%.

On to `Cc1cc(CCNC(=O)[C@@H]2CC(=O)N(C)[C@@H](CC(C)C)C(=O)N3CCCC[C@@H]3C(=O)N[C@@H](Cc3ccccc3)COc3cnc4ccccc4c3C(=O)N2)on1` [Example 487, (9S,13S,19aR,22S)-22-benzyl-13-isobutyl-12-methyl-N-(2-(3-methylisoxazol-5-yl)ethyl)-7,11,14,20-tetraoxo-7,8,9,10,11,12,13,14,17,18,19,19a,20,21,22,23-hexadecahydro-16H-pyrido[2′,1′:6,7][1]oxa[4,7,10,14]tetraazacycloheptadecino[17,16-c]quinoline-9-carboxamide], for which the EC50 amounted to 1340 nM and the Emax was 147%.

For the compound `COc1cccc(CCNC(=O)[C@@H]2CC(=O)N(C)[C@@H](CC(C)C)C(=O)N(C)C3(CC3)C(=O)N[C@H](Cc3ccccc3)COc3ccc(OC)nc3C(=O)N2)c1` [Example 488, (3′R,9′S,13′S)-3′-benzyl-9′-isobutyl-17′-methoxy-N-(3-methoxyphenethyl)-7′,10′-dimethyl-5′,8′,11′,15′-tetraoxo-2′,3′,4′,5′,8′,9′,10′,11′,12′,13′,14′,15′-dodecahydro-7′H-spiro[cyclopropane-1,6′-pyrido[2,3-p][1]oxa[4,7,10,14]tetraazacycloheptadecine]-13′-carboxamide], the EC50 came to 910 nM and the Emax came to 270%.

`CC(C)C[C@H]1C(=O)N2CCOC[C@@H]2C(=O)N[C@H](Cc2ccccc2)COc2cnc3ccc(F)cc3c2C(=O)N[C@H](C(=O)NCCc2noc(C3CC3)n2)CC(=O)N1C` [Example 489, (9S,13S,19aR,22R)-22-benzyl-N-(2-(5-cyclopropyl-1,2,4-oxadiazol-3-yl)ethyl)-5-fluoro-13-isobutyl-12-methyl-7,11,14,20-tetraoxo-7,8,9,10,11,12,13,14,16,17,19,19a,20,21,22,23-hexadecahydro-[1,4]oxazino[3′,4′:6,7][1]oxa[4,7,10,14]tetraazacycloheptadecino[17,16-c]quinoline-9-carboxamide]: the EC50 is 625 nM and the Emax is 273%.

In the case of `CC(C)C[C@H]1C(=O)N2CCCC[C@@H]2C(=O)N[C@H](Cc2ccccc2)COc2ccc3c(cnn3C)c2C(=O)N[C@H](C(=O)NCCc2c(F)cccc2F)CC(=O)N1C` [Example 490, (8S,12S,18aR,21R)-21-benzyl-N-(2,6-difluorophenethyl)-12-isobutyl-3,11-dimethyl-6,10,13,19-tetraoxo-6,7,8,9,10,11,12,13,16,17,18,18a,19,20,21,22-hexadecahydro-3H,15H-pyrido[2′,1′:6,7][1]oxa[4,7,10,14]tetraazacycloheptadecino[16,17-e]indazole-8-carboxamide], the EC50 was 222 nM and the Emax is 181%.

For `CC(C)C[C@H]1C(=O)N2CCCC[C@@H]2C(=O)N[C@H](Cc2ccccc2)COc2ccc3c(c2C(=O)N[C@H](C(=O)NCCc2c(F)cccc2F)CC(=O)N1C)OCC3` [Example 491, (8S,12S,18aR,21R)-21-benzyl-N-(2,6-difluorophenethyl)-12-isobutyl-11-methyl-6,10,13,19-tetraoxo-3,4,6,7,8,9,10,11,12,13,16,17,18,18a,19,20,21,22-octadecahydro-15H-benzofuro[7,6-p]pyrido[2,1-f][1]oxa[4,7,10,14]tetraazacycloheptadecine-8-carboxamide], the EC50 turned out to be 209 nM and the Emax turned out to be 178%.

Turning to `CO[C@H]1C[C@]2(C1)C(=O)N[C@H](Cc1ccccc1)COc1ccc3ccccc3c1C(=O)N[C@H](C(=O)NCCc1ccc(-n3nccn3)cc1)CC(=O)N(C)[C@@H](CC(C)C)C(=O)N2C` [Example 492, (1r,3S,3′S,7′S,13′R)-N-(4-(2H-1,2,3-triazol-2-yl)phenethyl)-13′-benzyl-7′-isobutyl-3-methoxy-6′,9′-dimethyl-1′,5′,8′,11′-tetraoxo-2′,3′,4′,5′,6′,7′,8′,9′,11′,12′,13′,14′-dodecahydro-1′H-spiro[cyclobutane-1,10′-naphtho[1,2-p][1]oxa[4,7,10,14]tetraazacycloheptadecine]-3′-carboxamide], the EC50 turned out to be 305 nM and the Emax is 168%.

For the compound `CO[C@H]1C[C@]2(C1)C(=O)N[C@H](Cc1ccccc1)COc1cnc3ccccc3c1C(=O)N[C@H](C(=O)NCCc1ccc(-n3nccn3)cc1)CC(=O)N(C)[C@@H](CC(C)C)C(=O)N2C` [Example 493, (1r,3S,3′S,7′S,13′R)-N-(4-(2H-1,2,3-triazol-2-yl)phenethyl)-13′-benzyl-7′-isobutyl-3-methoxy-6′,9′-dimethyl-1′,5′,8′,11′-tetraoxo-2′,3′,4′,5′,6′,7′,8′,9′,11′,12′,13′,14′-dodecahydro-1′H-spiro[cyclobutane-1,10′-[1]oxa[4,7,10,14]tetraazacycloheptadecino[17,16-c]quinoline]-3′-carboxamide], the EC50 amounted to 687 nM and the Emax was 253%.

Consider `COc1cccc(CCNC(=O)[C@@H]2CC(=O)N(C)[C@@H](CC(C)C)C(=O)N(C)C3(CC3)C(=O)N[C@H](Cc3ccccc3)COc3ccc4cnccc4c3C(=O)N2)c1` [Example 494, (3′S,7′S,13′R)-13′-benzyl-7′-isobutyl-N-(3-methoxyphenethyl)-6′,9′-dimethyl-1′,5′,8′,11′-tetraoxo-2′,3′,4′,5′,6′,7′,8′,9′,11′,12′,13′,14′-dodecahydro-1′H-spiro[cyclopropane-1,10′-[1]oxa[4,7,10,14]tetraazacycloheptadecino[16,17-f]isoquinoline]-3′-carboxamide], for which the EC50 was 260 nM and the Emax turned out to be 295%.

As usually defined, the EC50 is the concentration needed to bring the measured effect to its halfway point. Broadly, the Emax is the greatest response seen or fitted, relative to the assay's reference.
